Results on 22 compounds are retold here after patent US10214546B2, “Btk inhibitors” (MERCK SHARP & DOHME CORP., priority 2014, dated 2019).

Assay [1] has as its target BTK enzyme (recombinant full-length BTK, hBTK) (Homo sapiens (Human), UniProt Q06187). In words: BTK enzymatic activity LANCE TR-FRET assay. It counts as biochemical. Conditions: 50 pM hBTK, 25 μM ATP, 2 μM biotin-A5-peptide; compound range 1 μM to 0.017 nM; read-out: BTK binding IC50.
In assay [2] the test system is adenosine uptake into HeLa cells. The experiment in a line: [3H]Adenosine uptake assay in HeLa cells. Conditions: compound range 10 μM to 0.032 nM. It counts as cell-based. Put shortly: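 IC50 came from a 4-parameter fit of counts per second over a ten-point, 1:3 titration (final 10 µM down to […]). Compound was applied 30 min at ambient temperature in HBSS/5% FBS before a 500 nM [3H]adenosine solution was added; uptake ran 60 min, read by Cytostar-T proximity scintillation.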

The mark [3] stands for this setting: Homo sapiens, HeLa, [3H]adenosine accumulation in HeLa cells, read-out: ADU inhibition IC50.
[4] abbreviates: [3H]adenosine accumulation in HeLa cells, read-out: ADU inhibition IC50.

Read-outs that look alike come from different tables or passages of the source.

Chain of BTK enzyme (recombinant full-length BTK, hBTK) (Q06187 whole entry): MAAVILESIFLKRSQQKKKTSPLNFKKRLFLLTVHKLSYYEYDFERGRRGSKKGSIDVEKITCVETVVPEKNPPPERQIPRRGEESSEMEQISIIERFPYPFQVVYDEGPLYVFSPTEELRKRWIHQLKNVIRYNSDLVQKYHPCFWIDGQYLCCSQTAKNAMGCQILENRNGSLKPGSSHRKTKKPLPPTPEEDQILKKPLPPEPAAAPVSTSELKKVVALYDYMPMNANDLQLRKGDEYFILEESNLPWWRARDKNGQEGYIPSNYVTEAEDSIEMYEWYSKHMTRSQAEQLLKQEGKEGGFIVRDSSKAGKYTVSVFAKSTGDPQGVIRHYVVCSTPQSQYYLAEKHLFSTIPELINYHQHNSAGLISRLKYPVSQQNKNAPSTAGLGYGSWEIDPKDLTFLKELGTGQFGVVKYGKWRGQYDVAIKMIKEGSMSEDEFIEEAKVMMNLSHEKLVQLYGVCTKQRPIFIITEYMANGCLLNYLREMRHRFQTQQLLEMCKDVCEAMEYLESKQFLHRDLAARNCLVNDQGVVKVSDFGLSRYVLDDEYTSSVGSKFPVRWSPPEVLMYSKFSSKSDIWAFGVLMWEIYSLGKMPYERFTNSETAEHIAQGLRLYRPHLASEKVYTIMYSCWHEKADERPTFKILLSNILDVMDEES

Broadly, the IC50 is the midpoint of a concentration-inhibition curve. Regarding `Nc1nccn2c([C@@H]3CC[C@H]4CCC(=O)N4C3)nc(-c3ccc([C@@](O)(CO)c4cccc(C(F)(F)F)c4)cc3)c12` [Example 106, (6R,8aS)-6-[8-amino-1-(4-{(1S)-1,2-dihydroxy-1-[3-(trifluoromethyl)phenyl]ethyl}phenyl)imidazo [1,5-a]pyrazin-3-yl]hexahydroindolizin-3(2H)-one], the IC50 in assay [1] turned out to be 153 nM; in assay [2] (setting [3]) it was 6970 nM.

Take `C[C@@](O)(c1ccc(-c2nc([C@H]3CC[C@@H]4N(C3)C(=O)CCC4(F)F)n3ccnc(N)c23)cc1)c1cccc(C(F)(F)F)c1` [Example 171, (7S,9aS)-7-[8-amino-1-(4-{(1R)-1-hydroxy-1-[3-(trifluoromethyl)phenyl]ethyl}phenyl)imidazo [1,5-a]pyrazin-3-yl]-1,1-difluorooctahydro-4H-quinolizin-4-one]: the values for the IC50 in assay [1] and in assay [2] (setting [3]) were 89 nM and 7960 nM, respectively.

On to `Nc1nccn2c([C@@H]3CC[C@H]4CCC(=O)N4C3)nc(-c3ccc(C(O)c4cc(C(F)(F)F)ccc4F)cc3)c12` (some centres unmarked) [Example 128], for which the IC50 in assay [1] amounted to 12.4 nM; in assay [2] (setting [4]), 1470 nM.

For the compound `Cn1nc(C(C)(O)c2ccc(-c3nc([C@@H]4CC[C@H]5CCC(=O)N5C4)n4ccnc(N)c34)cc2)cc1C(F)(F)F` (stereo partly drawn) [Example 35, (6R,8aS)-6-[8-amino-1-(4-{1-hydroxy-1-[1-methyl-5-(trifluoromethyl)-1H-pyrazol-3-yl]ethyl}phenyl)imidazo [1,5-a]pyrazin-3-yl]hexahydroindolizin-3(2H)-one], the results for the IC50 in assay [1] and in assay [2] (setting [3]) were 218 nM and 2230 nM, respectively.

With `CC(O)(c1ccc(-c2nc([C@@H]3CC[C@H]4CCC(=O)N4C3)n3ccnc(N)c23)cc1)c1cccc(F)c1` (stereo partly drawn) [Example 16, (6R,8aS)-6-(8-amino-1-{4-[1-(3-fluorophenyl)-1-hydroxyethyl]phenyl}imidazo[1,5-a]pyrazin-3-yl)hexahydroindolizin-3(2H)-one], the IC50 was determined as 7.3 nM in assay [1] and 2440 nM in assay [2] (setting [3]).

With `Cc1cc(-c2nc([C@@H]3CC[C@H]4CCC(=O)N4C3)n3ccnc(N)c23)ccc1C(C)(O)c1cccc(C(F)(F)F)c1` (stereo partly drawn) [Example 43, (6R,8aS)-6-[8-amino-1-(4-{1-hydroxy-1-[3-(trifluoromethyl)phenyl]ethyl}-3-methylphenyl)imidazo [1,5-a]pyrazin-3-yl]hexahydroindolizin-3(2H)-one], the IC50 in assay [1] was 1000 nM; in assay [2] (setting [4]), 535 nM.

Consider `CC1(C)C[C@@H]2CC[C@@H](c3nc(-c4ccc(C(C)(O)c5cccc(C(F)F)c5)cc4F)c4c(N)nccn34)CN2C1=O` (stereo partly drawn) [Example 201, (6R,8aS)-6-[8-amino-1-(4-{1-[3-(difluoromethyl)phenyl]-1-hydroxyethyl}-2-fluorophenyl)imidazo[1,5-a]pyrazin-3-yl]-2,2-dimethylhexahydroindolizin-3(2H)-one], for which the IC50 in assay [1] is 42.2 nM; in assay [2] (setting [4]), 418 nM.

Turning to `C[C@](O)(c1ccc(-c2nc([C@@H]3CC[C@H]4CCC(=O)N4C3)n3ccnc(N)c23)cc1)c1cccc(C(F)F)c1` [Example 70, (6R,8aS)-6-[8-amino-1-(4-{(1S)-1-[3-(difluoromethyl)phenyl]-1-hydroxyethyl}phenyl)imidazo[1,5-a]pyrazin-3-yl]hexahydroindolizin-3(2H)-one], the results for the IC50 in assay [1] and in assay [2] (setting [3]) were 30.4 nM and 1010 nM, respectively.

For `CC(O)(c1cccc(C(F)(F)F)c1)c1ccc(-c2nc([C@@H]3CC[C@H]4CCC(=O)N4C3)n3ccnc(N)c23)cc1F` (stereo partly drawn) [Example 60, (6R,8aS)-6-[8-amino-1-(3-fluoro-4-{1-hydroxy-1-[3-(trifluoromethyl)phenyl]ethyl}phenyl)imidazo [1,5-a]pyrazin-3-yl]hexahydroindolizin-3(2H)-one], the half-inhibitory concentration (IC50) in assay [1] turned out to be 36.7 nM; in assay [2] (setting [4]) it was 3360 nM.

As to `C[C@](O)(c1ccc(-c2nc([C@@H]3CC[C@H]4CCC(=O)N4C3)n3ccnc(N)c23)cc1)c1cccc(-n2ccnc2)c1` [Example 153, (6R,8aS)-6-[8-amino-1-(4-{(1S)-1-hydroxy-1-[3-(1H-imidazol-1-yl)phenyl]ethyl}phenyl)imidazo[1,5-a]pyrazin-3-yl]hexahydroindolizin-3(2H)-one], the IC50 in assay [1] turned out to be 1000 nM; in assay [2] (setting [3]) it was 1960 nM.

Turning to `Cc1ccccc1[C@](C)(O)c1ccc(-c2nc([C@@H]3CC[C@H]4CCC(=O)N4C3)n3ccnc(N)c23)cc1` [Example 48, (6R,8aS)-6-(8-amino-1-{4-[(1R)-1-hydroxy-1-(2-methylphenyl)ethyl]phenyl}imidazo[1,5-a]pyrazin-3-yl)hexahydroindolizin-3(2H)-one], the figures for the IC50 in assay [1] and in assay [2] (setting [3]) were 2.5 nM and 3300 nM, respectively.

Turning to `C[C@@](O)(c1ccc(-c2nc([C@@H]3CC[C@H]4CCC(=O)N4C3)n3ccnc(N)c23)cc1)c1cccc(C2CCC2)c1` [Example 83, (6R,8aS)-6-(8-amino-1-{4-[(1R)-1-(3-cyclobutylphenyl)-1-hydroxyethyl]phenyl}imidazo[1,5-a]pyrazin-3-yl)hexahydroindolizin-3(2H)-one], the IC50 in assay [1] was found to be 0.12 nM; in assay [2] (setting [3]), 1330 nM.

`C[C@@](O)(c1ccc(-c2nc([C@@H]3CC[C@H]4CCC(=O)N4C3)n3ccnc(N)c23)cc1)c1cc(C(F)(F)F)ccn1` [Example 37, (6R,8aS)-6-[8-amino-1-(4-{(1R)-1-hydroxy-1-[4-(trifluoromethyl)pyridin-2-yl]ethyl}phenyl)imidazo[1,5-a]pyrazin-3-yl]hexahydroindolizin-3(2H)-one]: the IC50 in assay [1] is 255 nM; in assay [2] (setting [3]), 3470 nM.

With `C[C@](O)(c1ccc(-c2nc([C@@H]3CC[C@H]4CCC(=O)N4C3)n3c(Cl)cnc(N)c23)cc1)c1cccc(C2CC2)c1` [Example 116, (6R,8aS)-6-(8-amino-5-chloro-1-{4-[(1S)-1-(3-cyclopropylphenyl)-1-hydroxyethyl]phenyl}imidazo[1,5-a]pyrazin-3-yl)hexahydroindolizin-3(2H)-one], the 50% inhibitory concentration (IC50) in assay [1] was determined as 0.87 nM; in assay [2] (setting [3]), 458 nM.

Consider `NC(=O)C(O)(c1ccc(-c2nc([C@@H]3CC[C@H]4CCC(=O)N4C3)n3ccnc(N)c23)cc1)c1cccc(C(F)(F)F)c1` (stereo partly drawn) [Example 96, 2-(4-{8-amino-3-[(6R,8aS)-3-oxooctahydroindolizin-6-yl]imidazo[1,5-a]pyrazin-1-yl}phenyl)-2-hydroxy-2-[3-(trifluoromethyl)phenyl] acetamide], for which the IC50 in assay [1] came to 576 nM; in assay [2] (Homo sapiens, HeLa, read-out: ADU inhibition IC50 (nM), [3H]adenosine accumulation in HeLa cells), 7140 nM.

Turning to `Nc1nccn2c([C@@H]3CC[C@H]4CCC(=O)N4C3)nc(-c3ccc(C(O)c4cccc(C(F)(F)F)c4)cc3)c12` (stereo partly drawn) [Example 73, (6R,8aS)-6-[8-amino-1-(4-{hydroxy[3-(trifluoromethyl)phenyl]methyl}phenyl)imidazo [1,5-a]pyrazin-3-yl]hexahydroindolizin-3(2H)-one], the IC50 in assay [1] is 0.41 nM; in assay [2] (setting [4]), 1350 nM.

On to `CC(F)(F)c1cccc([C@@](C)(O)c2ccc(-c3nc([C@@H]4CC[C@H]5CCC(=O)N5C4)n4ccnc(N)c34)cc2)c1` [Example 131, (6R,8aS)-6-[8-amino-1-(4-{(1S)-1-[3-(1,1-difluoroethyl)phenyl]-1-hydroxyethyl}phenyl)imidazo[1,5-a]pyrazin-3-yl]hexahydroindolizin-3(2H)-one], for which the IC50 in assay [1] amounted to 64.4 nM; in assay [2] (setting [3]), 436 nM.

As for `C[C@](O)(c1ccc(-c2nc([C@@H]3CC[C@H]4CCC(=O)N4C3)n3ccnc(N)c23)cc1)c1cccc(C(F)(F)F)c1` [Example 4, (6R,8aS)-6-(8-amino-1-(4-((S)-1-hydroxy-1-(3-(trifluoromethyl)phenyl)ethyl)phenyl)imidazo[1,5-a]pyrazin-3-yl)hexahydroindolizin-3(2H)-one], the figures for the IC50 in assay [1] and in assay [2] (setting [3]) were 0.62 nM and 3480 nM, respectively.

Regarding `C[C@@](O)(c1cccc(C(F)(F)F)c1)c1ccc(-c2nc([C@@H]3CC[C@H]4CCC(=O)N4C3)n3ccnc(N)c23)c(F)c1` [Example 102, (6R,8aS)-6-[8-amino-1-(2-fluoro-4-{(1R)-1-hydroxy-1-[3-(trifluoromethyl)phenyl]ethyl}phenyl)imidazo [1,5-a]pyrazin-3-yl]hexahydroindolizin-3(2H)-one], the IC50 in assay [1] was 1.6 nM; in assay [2] (setting [3]), 1680 nM.

Regarding `CC1(C)C[C@@H]2CC[C@@H](c3nc(-c4ccc([C@@](C)(O)c5cccc(C(F)F)c5)cc4)c4c(N)nccn34)CN2C1=O` [Example 181, (6R,8aS)-6-[8-amino-1-(4-{(1R)-1-[3-(difluoromethyl)phenyl]-1-hydroxyethyl}phenyl)imidazo[1,5-a]pyrazin-3-yl]-2,2-dimethylhexahydroindolizin-3(2H)-one], the IC50 worked out at 0.2 nM in assay [1] and 3620 nM in assay [2] (setting [3]).

In the case of `C[C@](O)(c1ccc(-c2nc([C@@H]3CC[C@H]4CCC(=O)N4C3)n3ccnc(N)c23)cc1)c1ccc(C(F)(F)F)s1` [Example 113, (6R,8aS)-6-[8-amino-1-(4-{(1S)-1-hydroxy-1-[5-(trifluoromethyl)thiophen-2-yl]ethyl}phenyl)imidazo [1,5-a]pyrazin-3-yl]hexahydroindolizin-3(2H)-one], the IC50 in assay [1] was 30.9 nM; in assay [2] (setting [4]), 2140 nM.

For `C[C@@](O)(c1ccc(-c2nc([C@@H]3CC[C@H]4CCC(=O)N4C3)n3ccnc(N)c23)cc1)c1ccccc1F` [Example 69, (6R,8aS)-6-(8-amino-1-{4-[(1R)-1-(2-fluorophenyl)-1-hydroxyethyl]phenyl}imidazo[1,5-a]pyrazin-3-yl)hexahydroindolizin-3(2H)-one], the concentration for half-maximal inhibition (IC50) in assay [1] came to 4.9 nM; in assay [2] (setting [3]) it was 6470 nM.
